Data as given in US9913838B2, “Methods of treating cancer using compositions comprising perillyl alcohol derivative” (NEONC TECHNOLOGIES INC., priority 2010, dated 2018).
“Also recorded” adds a separate entry of the source.

Columns and labels:
[1] = Lipophilicity; assay type: physicochemical; conditions: data not shown; in words
[2] = test system: TMZ resistant cells (U251TR); assay: MTT cytotoxicity assay, U251TR cells; assay type: cell-based, human; conditions: in words
Description: (§1) Cancer Lett. 2011 Mar. 28; 302(2):100-8.

[3] = test system: normal astrocytes; assay: MTT cytotoxicity assay, normal astrocytes; assay type: cell-based; conditions: in words
Description: as §1

C=C(C)[C@@H]1CC=C(COC(=O)NC(=O)c2ncn3c(=O)n(C)nnc23)CC1 [TMZ-POH]
lipophilicity [1]: increased over TMZ | cytotoxicity (MTT assay) [2]: demonstrated cytotoxicity | cytotoxicity (MTT assay) [3]: not towards normal astrocytes; also recorded: did not induce significant cytotoxicity
